Assay results reported in US4711883A, “Substituted 3-(4-phenyl-1-piperazinyl)alkylquinazolin-2,4-(1H,3H) diones, methods of preparation, compositions and method of use” (Ortho Pharmaceutical Corporation, priority 1985, dated 1987).
Structures can show the parent of a compound that is named as a salt. Where two headings read alike, the source gives them in different places.

Columns and labels:
[1] = tested on: spontaneously hypertensive rats (SHR); assay: antihypertensive evaluation, systolic blood pressure, single oral dose, conscious SHR (tail cuff); type: in vivo
Protocol: (§1) The percent recovery is calculated by dividing the maximum decrease in mean arterial blood pressure (mm Hg) caused by tilt into the amount of rise in blood pressure at 15 seconds after initiating tilt. The antihypertensive as well as teh alpha1 -adrenergic blocking properties of the novel quinazolinedione piperazines were evaluated and set forth in Table 2.
The antihypertensive evaluation followed the following procedure:
Adult male spontaneously hypertensive rats (SHR) were placed in restrainers in a chamber warmed to 32° C. A standard indirect method employing a pneumatic pulse transducer and inflatable tail cuff was used to measure systolic blood pressure (SBP) in the conscious state. After baseline SBP were recorded, groups of 4 SHR received a single oral dose of drug or vehicle (0.5% methylcellulose) administered with a gavage tube. SBP's were obtained at 1/2, 1, 2, 3 and 4 hours post treatment. Changes in SBP's were statistically compared to the vehicle effect using Students t test, at p ε0.05.

[2] = tested on: α1 -adrenergic; assay: α1 -adrenergic blockade: inhibition of phenylephrine-induced increases in diastolic blood pressure in the anesthetized dog; type: in vivo; settings: for Percent Inhibition of Phenylephrin-Induced Pressor Responses: dog
Protocol: The α1 -adrenergic blockade: inhibition of phenylephrine-inducedincreases in diastolic blood pressure in the anesthetized dog was determined according to the method set forth in the following literature reference:
Arunlakshana, O, and Schild, H. O. (1959). Some Quantitative Uses of Drug Antagonists. Br. J. Pharmac. Chemother., 14:48-58.
The procedure is as follows:
Dogs are anesthetized and bilaterally vagotomized. A femoral artery and vein are cannulated for detection of diastolic blood pressure and drug administration, respectively. Percent inhibition of alpha adrenergic receptor antagonism is quantitiated by determining the dose-response (increase in diastolic pressure) relationship of phenylephrine before and after various doses of the antagonist. Statistical analysis of percent inhibition is calculated by use of the variance component estimation test. In addition, the Dose Ratio (DR20) may be calculated for potency comparisons and is defined as the dose of antagonist required to produce an agonist dose ratio of 20.

[3] = tested on: tilt reflex recovery response; design: species or system mongrel dogs; settings: dog, in vivo
Protocol: as §1, with “The tilt reflex recovery response is determined as follows: Adult mongrel dogs of either sex are anesthetized with pentobarbital sodium, secured to a tilt table and surgically prepared for measurement of blood pressure and heart rate. Animals are tilted and the percent recovery of the tilt response in the blood pressure is quantitated. The percent” for “The percent”

[4] = bioavailability comparison, MABP in conscious cannulated SHR (i.v. and oral); type: in vivo, spontaneously hypertensive rats (SHR); settings: rat, in vivo; SHR; small numbers (close to unity) indicate good bioavailability; read-out: Ratio P.O./I.V. (bioavailability ratio)
Protocol: (§2) The bioavailability comparison was determined in conscious direct cannulated spontaneously hypertensive rats. Briefly, the SHRs were anesthetized with ether and a carotid arterial catheter was inserted for measurement of arterial blood pressure while a jugular catheter was inserted for i.v. drug administration. For oral dosing, a catheter was also passed via the esophagus into the stomach. All catheters were exteriorized at the nape of the neck and animals were placed in restrainers and allowed to recover from surgery. Blood pressure was continuously recorded. Drugs were dissolved in 5% dextrose in water and administered as a bolus at time zero. Bioavailability results are presented in Table 3. | (a) I.V. bolus dose that lowers MABP in conscious SHR by 10%. | (b) Oral gavage dose that lowers MABP in conscious cannulated SHR by 10%. | (c) Bioavailability ratio with small numbers (close to unity) indicating | good bioavailability.

[5] = tested on: spontaneously hypertensive rats; assay: as above; type: in vivo, spontaneously hypertensive rats (SHR); settings: for ED10: Rattus norvegicus
Protocol: as §2

[6] = tested on: histamine; assay: autonomic tests: histamine blood pressure responses; type: in vivo; settings: dogs
[7] = tested on: acetylcholine; assay: autonomic tests: acetylcholine blood pressure responses; type: in vivo; settings: dogs
[8] = iv, conscious SHR, I.V. bolus, read-out: I.V. E.D.-10% (I.V. bolus dose that lowers MABP by 10%)
[9] = conscious cannulated SHR, oral gavage, read-out: P.O. E.D.-10% (oral gavage dose that lowers MABP by 10%)

inhibition of the tilt reflex recovery response [3] | SMILES | Peak Change in Systolic Blood Pressure ([1]; 0.1 mg/kg PO) [mm Hg] | selectivity ratio [4] | ED10 [5, 8] [mg/kg] | ED10 [5, 9] [mg/kg] | antihistaminic effect (inhibition of histamine blood pressure responses) [6] | anticholinergic effect (inhibition of acetylcholine blood pressure responses) [7] | Peak Change in Systolic Blood Pressure ([1]; 0.5 mg/kg PO) [mm Hg] | other results
– | COc1ccc(N2CCN(CCn3c(=O)[nH]c4ccc(OC)c(OC)c4c3=O)CC2)cc1 [E] | – | – | – | – | – | – | – | Peak Change in Systolic Blood Pressure ([1]; 20 mg/kg PO): -50 mm Hg; Percent Inhibition of Phenylephrin-Induced Pressor Responses ([2]; 1.0 mg/kg IV): 80%
– | Br.COc1ccccc1N1CCN(CCn2c(=O)[nH]c3ccc(O)c(O)c3c2=O)CC1.O [D, 5,6-Dihydroxy-3-{2-[4-(2-methoxyphenyl)-1-piperazinyl]ethyl}-quinazolin-2,4(1H,3H)-dione monohydrobromide monohydrate] | -60 | – | – | – | – | – | – | Peak Change in Systolic Blood Pressure ([1]; 0.05 mg/kg PO): -58 mm Hg; Percent Inhibition of Phenylephrin-Induced Pressor Responses ([2]; 0.0303 mg/kg IV): 89%
83%±8 | COc1ccccc1N1CCN(CCn2c(=O)[nH]c3ccccc3c2=O)CC1 [Compound Z, reference compound] | -40 | 740 | 0.5 | 370 | inhibits histamine and acetylcholine blood pressure responses | inhibits histamine and acetylcholine blood pressure responses | – | Percent Inhibition of Phenylephrin-Induced Pressor Responses ([2]; 0.010 mg/kg IV): 100%
37%±12 | COc1ccccc1N1CCN(CCn2c(=O)[nH]c3ccc(OC)c(OC)c3c2=O)CC1 [Compound A, 3-{2-[4-(2-Methoxyphenyl)-1-piperazinyl]ethyl}-5,6-dimethoxyquinazolin-2,4-(1H,3H)dione monohydrobromide] | -58 | 38.9 | 1.8 | 70 | almost no antihistaminic or anticholinergic effect | almost no antihistaminic or anticholinergic effect | -85 | oral hypotensive / antihypertensive activity (in words) ([1]; oral): orally effective antihypertensive profile; DR20 (dose of antagonist required to produce an agonist dose ratio of 20) ([2]; anesthetized dog, IV, phenylephrine): 0.0203 mg/kg; Percent Inhibition of Phenylephrin-Induced Pressor Responses ([2]; 0.0203 (DR20) mg/kg IV): 100%; bioavailability profile (in words) ([5]; oral/i.v. ratios compared with prior art): unexpected superior bioavailability
– | COc1ccccc1N1CCN(CCn2c(=O)[nH]c3c(Cl)cc(OC)c(OC)c3c2=O)CC1 [B, 8-chloro-3-{2-[4-(2-methoxyphenyl)-1-piperazinyl]ethyl}-5,6-dimethoxyquinazolin-2,4-(1H,3H)-dione] | – | – | – | – | – | – | – | Peak Change in Systolic Blood Pressure ([1]; 10 mg/kg PO): -72 mm Hg; Percent Inhibition of Phenylephrin-Induced Pressor Responses ([2]; 0.03 mg/kg IV): 60%; Percent Inhibition of Phenylephrin-Induced Pressor Responses ([2]; 0.2 mg/kg IV): 93%
– | COc1cc2[nH]c(=O)n(CCN3CCN(c4ccccc4OC)CC3)c(=O)c2cc1OC [C, 6,7-dimethoxy-3-{2-[4-(2-methoxyphenyl)-1-piperazinyl]ethyl}-quinazolin-2,4-(1H,3H)dione] | – | – | – | – | – | – | -69 | Percent Inhibition of Phenylephrin-Induced Pressor Responses ([2]; 0.1 mg/kg IV): 95%
